Assay results published in PubChem BioAssay (NCI).
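48-hour exposure; five concentrations; linearly interpolated endpoints. The concentration for full growth arrest is given as TGI.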

These compounds were tested on UACC-62 melanoma (assay: inhibition of tumour cell growth, NCI panel, 48 h).

Row | Structure (SMILES) | TGI [µM]
1 | COc1cc2c[n+](C)c3c4cc5c(cc4ccc3c2cc1OC)OCO5 | 4.92
2 | COc1cc(C2SCC(=O)N2c2ccccc2Cl)cc(OC)c1OC (configuration not stated) | > 100
3 | COc1cc(S(=O)(=O)Nc2nc(-c3ccc(N4C(=O)C(CC(=O)O)SC4c4ccccc4O)cc3)cs2)ccc1Cl (configuration not stated) | > 100
4 | COCC(N=CN1CCCc2ccccc2[C@@H]1CCCCl)C(C)(C)C (some centres not stated) | 32.1
5 | C[C@]12C[C@H](c3ccccc3)Nc3ccccc3N1C(c1ccccc1)=NO2 | > 100
6 | Cc1ccc2nc(CN3CCCC(O)C3)cc(=O)n2c1 (configuration not stated) | > 100
7 | CC[C@](O)(CC(=O)O[C@H]1C(=O)O[C@@H]2C[C@H]3C(C)=CC(=O)[C@@H](O)[C@]3(C)[C@H]3[C@@]4(O)OC[C@]32[C@@H]1[C@@H](C)[C@H]4O)C(C)C | < 0.01
8 | O=C1CC(CC(O)[C@@H]2CCCC[C@@H]2O)CC(=O)N1c1ccccc1 (some centres not stated) | > 100
9 | OC1(CCc2ccccc2)COC(C(F)(F)F)(C(F)(F)F)C1 (configuration not stated) | > 100

The compounds below were run on MOLT-4 leukemia (assay: inhibition of tumour cell growth, NCI panel, 48 h).

Row | Structure (SMILES) | TGI [µM]
10 | COc1cc2c[n+](C)c3c4cc5c(cc4ccc3c2cc1OC)OCO5 | 13.5
11 | COc1cc(S(=O)(=O)Nc2nc(-c3ccc(N4C(=O)C(CC(=O)O)SC4c4ccccc4O)cc3)cs2)ccc1Cl (configuration not stated) | > 100
12 | COCC(N=CN1CCCc2ccccc2[C@@H]1CCCCl)C(C)(C)C (some centres not stated) | 15.5
13 | COc1ccc(Nc2nnc(CCCCCCCCc3nnc(Nc4ccc(OC)cc4)o3)o2)cc1 | > 100
14 | C[C@]12C[C@H](c3ccccc3)Nc3ccccc3N1C(c1ccccc1)=NO2 | 78.8
15 | Cc1ccc2nc(CN3CCCC(O)C3)cc(=O)n2c1 (configuration not stated) | > 100
16 | CC[C@](O)(CC(=O)O[C@H]1C(=O)O[C@@H]2C[C@H]3C(C)=CC(=O)[C@@H](O)[C@]3(C)[C@H]3[C@@]4(O)OC[C@]32[C@@H]1[C@@H](C)[C@H]4O)C(C)C | < 0.01
17 | O=C1CC(CC(O)[C@@H]2CCCC[C@@H]2O)CC(=O)N1c1ccccc1 (some centres not stated) | > 100
18 | OC1(CCc2ccccc2)COC(C(F)(F)F)(C(F)(F)F)C1 (configuration not stated) | > 100

The compounds below were run on NCI-H226 lung (assay: inhibition of tumour cell growth, NCI panel, 48 h).

Row | Structure (SMILES) | TGI [µM]
19 | COc1cc2c[n+](C)c3c4cc5c(cc4ccc3c2cc1OC)OCO5 | 15.3
20 | COc1cc(C2SCC(=O)N2c2ccccc2Cl)cc(OC)c1OC (configuration not stated) | > 100
21 | COc1cc(S(=O)(=O)Nc2nc(-c3ccc(N4C(=O)C(CC(=O)O)SC4c4ccccc4O)cc3)cs2)ccc1Cl (configuration not stated) | > 100
22 | COCC(N=CN1CCCc2ccccc2[C@@H]1CCCCl)C(C)(C)C (some centres not stated) | 23.9
23 | COc1ccc(Nc2nnc(CCCCCCCCc3nnc(Nc4ccc(OC)cc4)o3)o2)cc1 | > 100
24 | C[C@]12C[C@H](c3ccccc3)Nc3ccccc3N1C(c1ccccc1)=NO2 | > 100
25 | Cc1ccc2nc(CN3CCCC(O)C3)cc(=O)n2c1 (configuration not stated) | > 100
26 | CC[C@](O)(CC(=O)O[C@H]1C(=O)O[C@@H]2C[C@H]3C(C)=CC(=O)[C@@H](O)[C@]3(C)[C@H]3[C@@]4(O)OC[C@]32[C@@H]1[C@@H](C)[C@H]4O)C(C)C | < 0.01
27 | O=C1CC(CC(O)[C@@H]2CCCC[C@@H]2O)CC(=O)N1c1ccccc1 (some centres not stated) | > 100
28 | OC1(CCc2ccccc2)COC(C(F)(F)F)(C(F)(F)F)C1 (configuration not stated) | > 100

Each compound was assayed on HT29 colon (assay: inhibition of tumour cell growth, NCI panel, 48 h).

Row | Structure (SMILES) | TGI [µM]
29 | COc1cc2c[n+](C)c3c4cc5c(cc4ccc3c2cc1OC)OCO5 | 4.6
30 | COc1cc(C2SCC(=O)N2c2ccccc2Cl)cc(OC)c1OC (configuration not stated) | > 100
31 | COc1cc(S(=O)(=O)Nc2nc(-c3ccc(N4C(=O)C(CC(=O)O)SC4c4ccccc4O)cc3)cs2)ccc1Cl (configuration not stated) | > 100
32 | COCC(N=CN1CCCc2ccccc2[C@@H]1CCCCl)C(C)(C)C (some centres not stated) | 69.7
33 | COc1ccc(Nc2nnc(CCCCCCCCc3nnc(Nc4ccc(OC)cc4)o3)o2)cc1 | > 100
34 | C[C@]12C[C@H](c3ccccc3)Nc3ccccc3N1C(c1ccccc1)=NO2 | > 100
35 | Cc1ccc2nc(CN3CCCC(O)C3)cc(=O)n2c1 (configuration not stated) | > 100
36 | CC[C@](O)(CC(=O)O[C@H]1C(=O)O[C@@H]2C[C@H]3C(C)=CC(=O)[C@@H](O)[C@]3(C)[C@H]3[C@@]4(O)OC[C@]32[C@@H]1[C@@H](C)[C@H]4O)C(C)C | < 0.01
37 | O=C1CC(CC(O)[C@@H]2CCCC[C@@H]2O)CC(=O)N1c1ccccc1 (some centres not stated) | > 100
38 | OC1(CCc2ccccc2)COC(C(F)(F)F)(C(F)(F)F)C1 (configuration not stated) | > 100

These compounds were tested on OVCAR-4 ovarian (assay: inhibition of tumour cell growth, NCI panel, 48 h).

Row | Structure (SMILES) | TGI [µM]
39 | COc1cc2c[n+](C)c3c4cc5c(cc4ccc3c2cc1OC)OCO5 | > 52.4
40 | COc1cc(C2SCC(=O)N2c2ccccc2Cl)cc(OC)c1OC (configuration not stated) | > 100
41 | COc1cc(S(=O)(=O)Nc2nc(-c3ccc(N4C(=O)C(CC(=O)O)SC4c4ccccc4O)cc3)cs2)ccc1Cl (configuration not stated) | > 100
42 | COCC(N=CN1CCCc2ccccc2[C@@H]1CCCCl)C(C)(C)C (some centres not stated) | 36
43 | COc1ccc(Nc2nnc(CCCCCCCCc3nnc(Nc4ccc(OC)cc4)o3)o2)cc1 | > 100
44 | C[C@]12C[C@H](c3ccccc3)Nc3ccccc3N1C(c1ccccc1)=NO2 | > 100
45 | Cc1ccc2nc(CN3CCCC(O)C3)cc(=O)n2c1 (configuration not stated) | > 100
46 | CC[C@](O)(CC(=O)O[C@H]1C(=O)O[C@@H]2C[C@H]3C(C)=CC(=O)[C@@H](O)[C@]3(C)[C@H]3[C@@]4(O)OC[C@]32[C@@H]1[C@@H](C)[C@H]4O)C(C)C | < 0.0144
47 | O=C1CC(CC(O)[C@@H]2CCCC[C@@H]2O)CC(=O)N1c1ccccc1 (some centres not stated) | > 100
48 | OC1(CCc2ccccc2)COC(C(F)(F)F)(C(F)(F)F)C1 (configuration not stated) | > 100

The compounds below were run on MDA-MB-435 (assay: inhibition of tumour cell growth, NCI panel, 48 h).

Row | Structure (SMILES) | TGI [µM]
49 | COc1cc2c[n+](C)c3c4cc5c(cc4ccc3c2cc1OC)OCO5 | > 100
50 | COc1cc(C2SCC(=O)N2c2ccccc2Cl)cc(OC)c1OC (configuration not stated) | 64.8
51 | COc1cc(S(=O)(=O)Nc2nc(-c3ccc(N4C(=O)C(CC(=O)O)SC4c4ccccc4O)cc3)cs2)ccc1Cl (configuration not stated) | > 100
52 | COCC(N=CN1CCCc2ccccc2[C@@H]1CCCCl)C(C)(C)C (some centres not stated) | 26.4
53 | COc1ccc(Nc2nnc(CCCCCCCCc3nnc(Nc4ccc(OC)cc4)o3)o2)cc1 | > 100
54 | C[C@]12C[C@H](c3ccccc3)Nc3ccccc3N1C(c1ccccc1)=NO2 | > 100
55 | Cc1ccc2nc(CN3CCCC(O)C3)cc(=O)n2c1 (configuration not stated) | > 100
56 | CC[C@](O)(CC(=O)O[C@H]1C(=O)O[C@@H]2C[C@H]3C(C)=CC(=O)[C@@H](O)[C@]3(C)[C@H]3[C@@]4(O)OC[C@]32[C@@H]1[C@@H](C)[C@H]4O)C(C)C | < 0.01
57 | O=C1CC(CC(O)[C@@H]2CCCC[C@@H]2O)CC(=O)N1c1ccccc1 (some centres not stated) | > 100
58 | OC1(CCc2ccccc2)COC(C(F)(F)F)(C(F)(F)F)C1 (configuration not stated) | > 100

These compounds were tested on UO-31 renal (assay: inhibition of tumour cell growth, NCI panel, 48 h).

Row | Structure (SMILES) | TGI [µM]
59 | COc1cc2c[n+](C)c3c4cc5c(cc4ccc3c2cc1OC)OCO5 | > 100
60 | COc1cc(C2SCC(=O)N2c2ccccc2Cl)cc(OC)c1OC (configuration not stated) | > 100
61 | COc1cc(S(=O)(=O)Nc2nc(-c3ccc(N4C(=O)C(CC(=O)O)SC4c4ccccc4O)cc3)cs2)ccc1Cl (configuration not stated) | > 100
62 | COCC(N=CN1CCCc2ccccc2[C@@H]1CCCCl)C(C)(C)C (some centres not stated) | 33.2
63 | COc1ccc(Nc2nnc(CCCCCCCCc3nnc(Nc4ccc(OC)cc4)o3)o2)cc1 | > 100
64 | C[C@]12C[C@H](c3ccccc3)Nc3ccccc3N1C(c1ccccc1)=NO2 | > 100
65 | Cc1ccc2nc(CN3CCCC(O)C3)cc(=O)n2c1 (configuration not stated) | > 100
66 | CC[C@](O)(CC(=O)O[C@H]1C(=O)O[C@@H]2C[C@H]3C(C)=CC(=O)[C@@H](O)[C@]3(C)[C@H]3[C@@]4(O)OC[C@]32[C@@H]1[C@@H](C)[C@H]4O)C(C)C | 0.0447
67 | O=C1CC(CC(O)[C@@H]2CCCC[C@@H]2O)CC(=O)N1c1ccccc1 (some centres not stated) | > 100
68 | OC1(CCc2ccccc2)COC(C(F)(F)F)(C(F)(F)F)C1 (configuration not stated) | > 100

These compounds were tested on MALME-3M melanoma (assay: inhibition of tumour cell growth, NCI panel, 48 h).

Row | Structure (SMILES) | TGI [µM]
69 | COc1cc2c[n+](C)c3c4cc5c(cc4ccc3c2cc1OC)OCO5 | 37.5
70 | COc1cc(S(=O)(=O)Nc2nc(-c3ccc(N4C(=O)C(CC(=O)O)SC4c4ccccc4O)cc3)cs2)ccc1Cl (configuration not stated) | > 100
71 | COCC(N=CN1CCCc2ccccc2[C@@H]1CCCCl)C(C)(C)C (some centres not stated) | 6.27
72 | COc1ccc(Nc2nnc(CCCCCCCCc3nnc(Nc4ccc(OC)cc4)o3)o2)cc1 | > 100
73 | C[C@]12C[C@H](c3ccccc3)Nc3ccccc3N1C(c1ccccc1)=NO2 | > 100
74 | Cc1ccc2nc(CN3CCCC(O)C3)cc(=O)n2c1 (configuration not stated) | > 100
75 | CC[C@](O)(CC(=O)O[C@H]1C(=O)O[C@@H]2C[C@H]3C(C)=CC(=O)[C@@H](O)[C@]3(C)[C@H]3[C@@]4(O)OC[C@]32[C@@H]1[C@@H](C)[C@H]4O)C(C)C | < 0.01
76 | O=C1CC(CC(O)[C@@H]2CCCC[C@@H]2O)CC(=O)N1c1ccccc1 (some centres not stated) | > 100
77 | OC1(CCc2ccccc2)COC(C(F)(F)F)(C(F)(F)F)C1 (configuration not stated) | > 100

These compounds were tested on T-47D breast (assay: inhibition of tumour cell growth, NCI panel, 48 h).

Row | Structure (SMILES) | TGI [µM]
78 | COc1cc(S(=O)(=O)Nc2nc(-c3ccc(N4C(=O)C(CC(=O)O)SC4c4ccccc4O)cc3)cs2)ccc1Cl (configuration not stated) | > 100
79 | COCC(N=CN1CCCc2ccccc2[C@@H]1CCCCl)C(C)(C)C (some centres not stated) | 84.1
80 | CC[C@](O)(CC(=O)O[C@H]1C(=O)O[C@@H]2C[C@H]3C(C)=CC(=O)[C@@H](O)[C@]3(C)[C@H]3[C@@]4(O)OC[C@]32[C@@H]1[C@@H](C)[C@H]4O)C(C)C | < 0.01
81 | OC1(CCc2ccccc2)COC(C(F)(F)F)(C(F)(F)F)C1 (configuration not stated) | > 100

Each compound was assayed on OVCAR-8 ovarian (assay: inhibition of tumour cell growth, NCI panel, 48 h).

Row | Structure (SMILES) | TGI [µM]
82 | COc1cc2c[n+](C)c3c4cc5c(cc4ccc3c2cc1OC)OCO5 | 29.9
83 | COc1cc(C2SCC(=O)N2c2ccccc2Cl)cc(OC)c1OC (configuration not stated) | > 100
84 | COc1cc(S(=O)(=O)Nc2nc(-c3ccc(N4C(=O)C(CC(=O)O)SC4c4ccccc4O)cc3)cs2)ccc1Cl (configuration not stated) | > 100
85 | COCC(N=CN1CCCc2ccccc2[C@@H]1CCCCl)C(C)(C)C (some centres not stated) | 40.7
86 | COc1ccc(Nc2nnc(CCCCCCCCc3nnc(Nc4ccc(OC)cc4)o3)o2)cc1 | > 100
87 | C[C@]12C[C@H](c3ccccc3)Nc3ccccc3N1C(c1ccccc1)=NO2 | > 100
88 | Cc1ccc2nc(CN3CCCC(O)C3)cc(=O)n2c1 (configuration not stated) | > 100
89 | CC[C@](O)(CC(=O)O[C@H]1C(=O)O[C@@H]2C[C@H]3C(C)=CC(=O)[C@@H](O)[C@]3(C)[C@H]3[C@@]4(O)OC[C@]32[C@@H]1[C@@H](C)[C@H]4O)C(C)C | < 0.01
90 | O=C1CC(CC(O)[C@@H]2CCCC[C@@H]2O)CC(=O)N1c1ccccc1 (some centres not stated) | > 100
91 | OC1(CCc2ccccc2)COC(C(F)(F)F)(C(F)(F)F)C1 (configuration not stated) | > 100

What follows are compounds tested on OVCAR-5 ovarian (assay: inhibition of tumour cell growth, NCI panel, 48 h).

Row | Structure (SMILES) | TGI [µM]
92 | COc1cc2c[n+](C)c3c4cc5c(cc4ccc3c2cc1OC)OCO5 | 4.84
